Test results as given in the supplement of paper PMC10307832.

How the values were obtained:
Experiment in all cases: relative viability (nuclei count vs DMSO), 5 days (fraction); higher = more cells survive
NCI-H596 = system: NCI-H596
Summary of the method: (§1)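 Lung cancer cell lines were seeded in 1536-well plates and dosed by pin tool the next day, with either a single drug or a fixed anchor-drug dose combined with five library-drug doses (not always all listed) spaced in √10 steps. Five days later, one step fixed the cells and stained their nuclei (final 0.05% Triton X-100, 1% formaldehyde, 1 ug/ml Hoechst), and nuclei were counted on 4× images. Relative viability is the nuclei count in treated wells divided by the count in vehicle wells, and each value is the median of duplicate plates.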

HARA = system: HARA
Summary of the method: as §1

NCI-H2170 = system: NCI-H2170
Summary of the method: as §1

NCI-H23 = system: NCI-H23
Summary of the method: as §1

SW 1573 = system: SW 1573
Summary of the method: as §1

EKVX = system: EKVX
Summary of the method: as §1

NCI-H2405 = system: NCI-H2405
Summary of the method: as §1

H3255 = system: H3255
Summary of the method: as §1

NCI-H3122 = system: NCI-H3122
Summary of the method: as §1

HCC-15 = system: HCC-15
Summary of the method: as §1

SW 900 = system: SW 900
Summary of the method: as §1

LCLC-103H = system: LCLC-103H
Summary of the method: as §1

EPLC-272H = system: EPLC-272H
Summary of the method: as §1

RERF-LC-KJ = system: RERF-LC-KJ
Summary of the method: as §1

LK-2 = system: LK-2
Summary of the method: as §1

ChaGo-K-1 = system: ChaGo-K-1
Summary of the method: as §1

NCI-H1793 = system: NCI-H1793
Summary of the method: as §1

LC-2-ad = system: LC-2-ad
Summary of the method: as §1

NCI-H1648 = system: NCI-H1648
Summary of the method: as §1

EMC-BAC-2 = system: EMC-BAC-2
Summary of the method: as §1

HCC-827 = system: HCC-827
Summary of the method: as §1

NCI-H1944 = system: NCI-H1944
Summary of the method: as §1

NCI-H1792 = system: NCI-H1792
Summary of the method: as §1

Q: Which results are given for `Oc1nc(-c2ccc(C(F)(F)F)cc2)nc2c1CSCC2` [XAV939] + Nc1nc2[nH]cc(CCc3ccc(C(=O)N[C@@H](CCC(=O)O)C(=O)O)cc3)c2c(=O)[nH]1 [Pemetrexed] (partner 0.2 µM)?
A: relative viability (NCI-H596; first compound 0.08 µM): 0.544; relative viability (NCI-H596; first compound 0.253 µM): 0.488; relative viability (NCI-H596; first compound 0.8 µM): 0.588; relative viability (NCI-H596; first compound 2.53 µM): 0.435; relative viability (HARA; first compound 0.08 µM): 0.255; relative viability (HARA; first compound 0.253 µM): 0.305; relative viability (HARA; first compound 0.8 µM): 0.252; relative viability (HARA; first compound 2.53 µM): 0.193; relative viability (NCI-H2170; first compound 0.08 µM): 0.255; relative viability (NCI-H2170; first compound 0.253 µM): 0.246; relative viability (NCI-H2170; first compound 0.8 µM): 0.265; relative viability (NCI-H2170; first compound 2.53 µM): 0.258; relative viability (NCI-H23; first compound 0.08 µM): 0.727; relative viability (NCI-H23; first compound 0.8 µM): 0.543; relative viability (NCI-H23; first compound 2.53 µM): 0.52; relative viability (SW 1573; first compound 0.08 µM): 0.876; relative viability (SW 1573; first compound 0.253 µM): 0.659; relative viability (SW 1573; first compound 0.8 µM): 0.816; relative viability (SW 1573; first compound 2.53 µM): 0.731; relative viability (EKVX; first compound 0.08 µM): 0.443; relative viability (EKVX; first compound 0.253 µM): 0.326; relative viability (EKVX; first compound 0.8 µM): 0.266; relative viability (EKVX; first compound 2.53 µM): 0.303; relative viability (NCI-H2405; first compound 0.08 µM): 0.972; relative viability (NCI-H2405; first compound 0.253 µM): 0.992; relative viability (NCI-H2405; first compound 0.8 µM): 0.945; relative viability (NCI-H2405; first compound 2.53 µM): 0.94; relative viability (H3255; first compound 0.08 µM): 0.576; relative viability (H3255; first compound 0.253 µM): 0.544; relative viability (H3255; first compound 0.8 µM): 0.55; relative viability (H3255; first compound 2.53 µM): 0.465; relative viability (NCI-H3122; first compound 0.08 µM): 0.211; relative viability (NCI-H3122; first compound 0.253 µM): 0.19; relative viability (NCI-H3122; first compound 0.8 µM): 0.198; relative viability (NCI-H3122; first compound 2.53 µM): 0.178; relative viability (HCC-15; first compound 0.08 µM): 0.238; relative viability (HCC-15; first compound 0.253 µM): 0.214; relative viability (HCC-15; first compound 0.8 µM): 0.241; relative viability (HCC-15; first compound 2.53 µM): 0.201; relative viability (SW 900; first compound 0.253 µM): 0.45; relative viability (SW 900; first compound 0.8 µM): 0.483; relative viability (SW 900; first compound 2.53 µM): 0.42; relative viability (LCLC-103H; first compound 0.08 µM): 0.448; relative viability (LCLC-103H; first compound 0.253 µM): 0.405; relative viability (LCLC-103H; first compound 0.8 µM): 0.519; relative viability (LCLC-103H; first compound 2.53 µM): 0.472; relative viability (EPLC-272H; first compound 0.08 µM): 0.312; relative viability (EPLC-272H; first compound 0.253 µM): 0.238; relative viability (EPLC-272H; first compound 0.8 µM): 0.511; relative viability (EPLC-272H; first compound 2.53 µM): 0.308; relative viability (RERF-LC-KJ; first compound 0.08 µM): 0.493; relative viability (RERF-LC-KJ; first compound 0.253 µM): 0.464; relative viability (RERF-LC-KJ; first compound 0.8 µM): 0.502; relative viability (RERF-LC-KJ; first compound 2.53 µM): 0.453; relative viability (LK-2; first compound 0.08 µM): 0.291; relative viability (LK-2; first compound 0.253 µM): 0.281; relative viability (LK-2; first compound 0.8 µM): 0.236; relative viability (LK-2; first compound 2.53 µM): 0.229; relative viability (ChaGo-K-1; first compound 0.08 µM): 0.261; relative viability (ChaGo-K-1; first compound 0.253 µM): 0.259; relative viability (ChaGo-K-1; first compound 0.8 µM): 0.269; relative viability (ChaGo-K-1; first compound 2.53 µM): 0.26; relative viability (NCI-H1793; first compound 0.08 µM): 1.08; relative viability (NCI-H1793; first compound 0.253 µM): 0.797; relative viability (NCI-H1793; first compound 0.8 µM): 0.936; relative viability (NCI-H1793; first compound 2.53 µM): 0.678; relative viability (LC-2-ad; first compound 0.08 µM): 0.281; relative viability (LC-2-ad; first compound 0.253 µM): 0.265; relative viability (LC-2-ad; first compound 0.8 µM): 0.264; relative viability (LC-2-ad; first compound 2.53 µM): 0.266; relative viability (NCI-H1648; first compound 0.253 µM): 0.701; relative viability (NCI-H1648; first compound 0.8 µM): 0.667; relative viability (NCI-H1648; first compound 2.53 µM): 0.722; relative viability (EMC-BAC-2; first compound 0.08 µM): 0.454; relative viability (EMC-BAC-2; first compound 0.253 µM): 0.399; relative viability (EMC-BAC-2; first compound 0.8 µM): 0.412; relative viability (EMC-BAC-2; first compound 2.53 µM): 0.344; relative viability (HCC-827; first compound 0.08 µM): 0.275; relative viability (HCC-827; first compound 0.253 µM): 0.268; relative viability (HCC-827; first compound 0.8 µM): 0.254; relative viability (HCC-827; first compound 2.53 µM): 0.245; relative viability (NCI-H1944; first compound 0.08 µM): 0.714; relative viability (NCI-H1944; first compound 0.253 µM): 0.623; relative viability (NCI-H1944; first compound 0.8 µM): 0.584; relative viability (NCI-H1944; first compound 2.53 µM): 0.501; relative viability (NCI-H1792; first compound 0.08 µM): 0.967; relative viability (NCI-H1792; first compound 0.253 µM): 0.726; relative viability (NCI-H1792; first compound 0.8 µM): 0.813; relative viability (NCI-H1792; first compound 2.53 µM): 0.72
